From US20200392107A1, “CYCLIC AMINE DERIVATIVE AND MEDICAL USE THEREOF” (Toray Industries, Inc., priority 2018, published 2020)

What was measured:
[1] = tested on: imiquimod-induced mouse psoriasis model; experiment: Imiquimod-induced mouse psoriasis model; assay type: in vivo; details: 10 mg/kg orally once daily for 5 days (3 to 7 days after induction); BALB/c mice; vs vehicle, P<0.05
Experimental: Using increase in the ear thickness as an index of exacerbation of symptoms, the effect of the cyclic amine derivative (I) or a pharmacologically acceptable salt thereof in an imiquimod-induced mouse psoriasis model was evaluated. The imiquimod-induced mouse psoriasis model was prepared by a partially modified method by Schaper et al. (The Journal of Dermatological Science, 2013, Vol. 71, No. 1, p. 29-36).
BALB/c mice (male, 7 weeks old) (Charles River Laboratories Japan, Inc.) were used at 8 to 9 weeks old after preliminary breeding. To induce psoriasis-like symptoms, 5 mg each of BESELNA CREAM 5% was applied once daily to the outside of the right and left auricles of the mice for 8 days from the day of first administration of imiquimod (hereinafter referred to as induction day) to 7 days after induction (dose of imiquimod, 0.5 mg/body/day).
A test compound at a dose of 10 mg/kg was administered to the mice once daily for 5 days from 3 days after induction to 7 days after induction. As the test compound, the compound of Example 1, the compound of Example 4, and the compound of Example 9 were used. The compound of Example 1, the compound of Example 4, and the compound of Example 9 were respectively suspended in a 0.5 w/v % methylcellulose solution and orally administered. The group in which the compound of Example 1 was administered to mice was defined as the Example-1 compound administration group, the group in which the compound of Example 4 was administered was defined as the Example-4 compound administration group, and the group in which the compound of Example 9 was administered was defined as the Example-9 compound administration group. In the vehicle administration group, a vehicle of each test compound (0.5 w/v % methylcellulose solution) was similarly administered.
The right and left ear thickness before administration of imiquimod (before induction) on the induction day and the right and left ear thickness on the 8th day after induction were measured with a digital micrometer (Mitutoyo Corporation). […]

[2] = tested on: IL-17 production in mouse splenocytes; experiment: Suppressive effect on IL-17 production by IL-23 stimulation in mouse splenocytes; assay type: cell-based; details: Splenocyte, 72 h, at 5 μmol/L of the test compound, human IL-23 10 ng/mL, cultured 3 days, read-out: IL-17 production inhibition rate (%)
Experimental: Using mouse splenocytes, the suppressive effect of the cyclic amine derivative (I) or a pharmacologically acceptable salt thereof on IL-17 production by IL-23 stimulation was evaluated by a partially modified method mentioned in The Journal of Biological Chemistry, 2003, Vol. 278, No. 3, p. 1910-1914.
A single cell suspension was prepared from the spleen of C57BL/6J mice (male or female, 6 to 30 weeks old) (Charles River Laboratories Japan, Inc. or CLEA Japan, Inc.) and splenocytes were prepared using Histopaque-1083 (Sigma-Aldrich Japan). The culture medium was used by adding 10% FBS (Gibco), 50 U/mL of penicillin-50 μg/mL of streptomycin (Gibco), 50 μmol/L of 2-mercaptoethanol (Gibco), and 100 U/mL of human IL-2 (Cell Science & Technology Institute, Inc.) to RPMI1640 medium (Gibco). A test compound was dissolved in DMSO and then diluted with the culture medium to have a final concentration of DMSO of 0.1% before use. Splenocytes (3×10^5 cells/well) prepared in the culture medium were seeded in wells of a 96-well flat-bottom plate (Corning Incorporated), the test compound and 10 ng/mL of human IL-23 (R & D systems, Inc.) were added thereto, and the cells were cultured at 37° C. under 5% CO2 for 3 days. A well without addition of human IL-23 and without addition of the test compound and a well with addition of human IL-23 and without addition of the test compound were prepared. After completion of the culture, the culture supernatant was collected and the IL-17 production amount in the supernatant was determined by ELISA method (R & D systems, Inc.).
The IL-17 production inhibition rate (%) was calculated from Formula (2).
IL-17 production inhibition rate (%)=(1−((IL-17 production amount with addition of IL-23 and with addition of the test compound)−(IL-17 production amount without addition of IL-23 and without addition of the test compound))/((IL-17 production amount with addition of IL-23 and without addition of the test compound)−(IL-17 production amount without addition of IL-23 and without addition of the test compound)))×100 (2).

Row | SMILES | increase in the ear thickness (change in the ear thickness, 8th day after induction) [1] | inhibition at 5 µM [2] [%]
1 | CC(=O)N1CCCC[C@@H]1C(=O)Nc1cc(Cl)c2c(c1)CCCN2Cc1ccc(C(F)(F)F)cc1 [Example 1, (R)-1-acetyl-N-(8-chloro-1-(4-(trifluoromethyl)benzyl)-1,2,3,4-tetrahydroquinolin-6-yl)piperidine-2-carboxamide] | statistically significantly suppressed | 98
2 | CC(=O)N1CCCC[C@@H]1C(=O)Nc1cc(Cl)c2c(c1)CCN2Cc1ccc(C(F)(F)F)cc1 [Example 4, (R)-1-acetyl-N-(7-chloro-1-(4-(trifluoromethyl)benzyl)indolin-5-yl)piperidine-2-carboxamide] | statistically significantly suppressed | 99.9
3 | CC(=O)N1CCCC[C@@H]1C(=O)Nc1cc(Cl)c2c(c1)CCN2C[C@H]1CC[C@H](C(F)(F)F)CC1 [Example 9, (R)-1-acetyl-N-(7-chloro-1-((trans-4-(trifluoromethyl)cyclo-hexyl)methyl)indolin-5-yl)piperidine-2-carboxamide] | statistically significantly suppressed | 99.5
